# Test results from ChEMBL document CHEMBL1155894, “Novel analogues of istaroxime, a potent inhibitor of Na+,K+-ATPase: synthesis and structure-activity relationship” (J Med Chem, 2008).
# Legend:
# [1] = Inhibition of dog kidney Na+,K+-ATPase by [32P]ATP hydrolysis method; design: species or system Canis lupus familiaris
# Cavia porcellus [2] = test: […] effect in anesthetized guinea pig assessed as drug level inducing maximun increase in dP/dtmax response relative to control; format: functional
# Cavia porcellus [3] = test: […] effect in anesthetized guinea pig assessed as drug level inducing increase in dP/dtmax response; format: functional
# Cavia porcellus [4] = test: […] effect in anesthetized guinea pig assessed as increase in dP/dtmax response relative to control; format: functional
# Cavia porcellus [5] = organism: Cavia porcellus; test: Ratio of toxic lethal dose to ED80 for inotropic activity in guinea pig; format: functional
# Cavia porcellus [6] = organism: Cavia porcellus; test: Toxicity in guinea pig assessed as induction of death; format: organism-based; conditions: in vivo
SMILES,IC50 [1] [nM],Activity (Cavia porcellus [2]) [µmol/kg],ED80 (Cavia porcellus [3]) [µmol/kg],Emax (Cavia porcellus [4]) [%],Ratio (Cavia porcellus [5]),Activity (Cavia porcellus [6])
C[C@]12CC/C(=N\OC[C@H]3CCCN3)C[C@@H]1C(=O)C[C@@H]1[C@@H]2CC[C@]2(C)C(=O)CC[C@@H]12,23000,–,–,–,–,–
C[C@]12CC/C(=N/O[C@@H]3CCNC3)C[C@@H]1[C@@H](O)C[C@@H]1[C@@H]2CC[C@]2(C)C(=O)CC[C@@H]12,220,9.62,1.64,216,21,–
CCCON=C1CC[C@@]2(C)[C@H](C1)C(=O)C[C@@H]1[C@@H]2CC[C@]2(C)C(=O)CC[C@@H]12,56,6.79,1.03,260,20.8,Toxic
C[C@@H](N)CO/N=C1/CC[C@@]2(C)[C@H](C1)C(=O)C[C@@H]1[C@@H]2CC[C@]2(C)C(=O)CC[C@@H]12,380,–,–,–,–,–
C[C@]12CC/C(=N/OCCNC(=N)N)C[C@@H]1C(=O)C[C@@H]1[C@@H]2CC[C@]2(C)C(=O)CC[C@@H]12,12000,–,–,–,–,–
C[C@H]1O[C@@H](O[C@H]2[C@@H](O)C[C@H](O[C@H]3[C@@H](O)C[C@H](O[C@H]4CC[C@@]5(C)[C@H](CC[C@@H]6[C@@H]5C[C@@H](O)[C@]5(C)[C@@H](C7=CC(=O)OC7)CC[C@]65O)C4)O[C@@H]3C)O[C@@H]2C)C[C@H](O)[C@@H]1O [DIGOXIN],220,0.97,0.41,127,3.2,Toxic
CNCCCO/N=C1/CC[C@@]2(C)[C@H](C1)C(O)C[C@@H]1[C@@H]2CC[C@]2(C)C(=O)CC[C@@H]12 (some centres not stated),920,8.95,–,77,<17,Toxic
C[C@]12CC/C(=N\OC[C@@H]3CCCN3)C[C@@H]1C(=O)C[C@@H]1[C@@H]2CC[C@]2(C)C(=O)CC[C@@H]12,11000,–,–,–,–,–
CN1CC[C@H](O/N=C2/CC[C@@]3(C)[C@H](C2)C(=O)C[C@@H]2[C@@H]3CC[C@]3(C)C(=O)CC[C@@H]23)C1,40500,–,–,–,–,–
C[C@]12CCC(=NO[C@@H]3CCNC3)C[C@@H]1C(=O)C[C@@H]1[C@@H]2CC[C@]2(C)C(=O)CC[C@@H]12,26,8.09,2.01,223,12,–
CNCCCO/N=C1/CC[C@@]2(C)[C@H](C1)C(=O)C[C@@H]1[C@@H]2CC[C@]2(C)C(=O)CC[C@@H]12,230,–,–,–,–,–
C[C@]12CC/C(=N/OCCN)C[C@@H]1C(=O)C[C@@H]1[C@@H]2CC[C@]2(C)C(=O)CC[C@@H]12,630,12.1,3.36,235,22.5,–
C[C@]12CC/C(=N/O[C@@H]3CCNC3)C[C@@H]1[C@H](O)C[C@@H]1[C@@H]2CC[C@]2(C)C(=O)CC[C@@H]12,850,44.8,3.92,256,49.1,Toxic
CC12CCC3C(CC(=O)C4CC(=NOCCN)CCC43C)C1CCC2=O (configuration not stated),110,5.74,1.82,182,25.6,–
C[C@]12CC/C(=N\O[C@@H]3CCNC3)C[C@@H]1C(=O)C[C@@H]1[C@@H]2CC[C@]2(C)C(=O)CC[C@@H]12,16,2.65,0.75,186,8,Toxic
C[C@]12CC/C(=N/O[C@H]3CCNC3)C[C@@H]1[C@@H](O)C[C@@H]1[C@@H]2CC[C@]2(C)C(=O)CC[C@@H]12,910,–,–,–,–,–
C[C@]12CC/C(=N/OC3CNC3)C[C@@H]1C(=O)C[C@@H]1[C@@H]2CC[C@]2(C)C(=O)CC[C@@H]12,100,–,–,–,–,–
CNCCO/N=C1/CC[C@@]2(C)[C@H](C1)C(=O)C[C@@H]1[C@@H]2CC[C@]2(C)C(=O)CC[C@@H]12,690,–,–,–,–,–
C[C@H](N)CO/N=C1/CC[C@@]2(C)[C@H](C1)C(=O)C[C@@H]1[C@@H]2CC[C@]2(C)C(=O)CC[C@@H]12,370,–,–,–,–,–
CN1CC[C@@H](O/N=C2/CC[C@@]3(C)[C@H](C2)C(=O)C[C@@H]2[C@@H]3CC[C@]3(C)C(=O)CC[C@@H]23)C1,1300,–,–,–,–,–
CC(C)(N)CO/N=C1/CC[C@@]2(C)[C@H](C1)C(=O)C[C@@H]1[C@@H]2CC[C@]2(C)C(=O)CC[C@@H]12,28500,–,–,–,–,–
C[C@]12CC/C(=N/O[C@H]3CCNC3)C[C@@H]1C(=O)C[C@@H]1[C@@H]2CC[C@]2(C)C(=O)CC[C@@H]12,240,–,–,–,–,–
C[C@]12CC/C(=N/OCCCCN)C[C@@H]1C(=O)C[C@@H]1[C@@H]2CC[C@]2(C)C(=O)CC[C@@H]12,1800,–,–,–,–,–
CC(C)(CN)O/N=C1/CC[C@@]2(C)[C@H](C1)C(=O)C[C@@H]1[C@@H]2CC[C@]2(C)C(=O)CC[C@@H]12,21,–,–,–,–,–
C[C@]12CC/C(=N\OC3CCNCC3)C[C@@H]1C(=O)C[C@@H]1[C@@H]2CC[C@]2(C)C(=O)CC[C@@H]12,1100,–,–,–,–,–
C[C@]12CC/C(=N\OC3CCCNC3)C[C@@H]1C(=O)C[C@@H]1[C@@H]2CC[C@]2(C)C(=O)CC[C@@H]12 (mixture of isomers),33000,–,–,–,–,–
C[C@]12CC/C(=N/O[C@@H]3CCNC3)C[C@@H]1C(=O)C[C@@H]1[C@@H]2CC[C@]2(C)C(=O)CC[C@@H]12,250,43.5,27.7,114,>3.6,Non-toxic
